US20250122193A1, “NOVEL PYRIDOCARBAZOLIUM COMPOUNDS AND MEDICAL USES THEREOF” (MyCural Therapeutics, priority 2021, published 2025)

What was measured:
Format in all cases: cell-based
FRA1:JUN interaction = molecular target: T1, FRA1:JUN interaction (Homo sapiens, UniProt P05412+P15407); experiment: in situ proximity ligation assay (isPLA), FRA1:JUN; conditions: 5 μM, 24 hours, MCF-7 cells
T1 construct: endogenous in cells; host or cells: MCF7

MYC mRNA = MYC mRNA expression by RT-qPCR
Description: A) Measurement of MYC mRNA expression by RTqPCR after treatment with MYCMI-7 and different topoisomerase inhibitors at indicated concentrations. […] D) Western blot analysis of p53 and p21 expression after exposure to 5 μM MYCMI-7, ellipticine or camptothecin (CPT) in HCT116 cells. E) Western blot analysis of phospho-ATM, total ATM and p53 expression after exposure to indicated concentrations of MYCMI-7 and ellipticine in A375 cells after 3 hrs treatment.

[1] = tested on: Burkitt's lymphoma cell lines; experiment: growth of Burkitt's lymphoma cell lines
Description: Cell culture and transfection: HeLa, MCF7, MDA-MB-231, U20S, HCT116, SK-N-F1, SK-N-RA, SK-N-AS, COS-7, Rat1 fibroblasts (Tgrl, H015.19 and HOMYC3), primary rat embryonic fibroblasts (REFs) were maintained in DMEM and Kelly, IMR-32, SK-N-DZ, P493-6, Daudi, CA46 and Ramos were kept in RPMI. In addition, the medium for H015.19 and primary REFs contained 1% sodium pyruvate. […] U20S-MYC-ER cell lines were cultured in phenol-red free DMEM and treated with 100 nM 4-hydroxytamoxifen (4-OHT) (Sigma-Aldrich) to activate MYC-ER. […] Transfection of HeLa cells was performed using Lipofectamine 2000 reagent (Invitrogen) according to manufacturer's instructions. For transfection of 293-T, U20S and REFs, FuGene6 (ROCHE) was used in accordance with manufacturer's recommendations. The proteasome inhibitor Z-leu-leu-leu-H aldehyde ([…]) (Peptides International) was used at 40 μM concentration.

A375 melanoma cells = experiment: Apo-Tox Glo Triplex assay, A375; conditions: 3 days of treatment
Description: FIG. 4: MYCMI-7 induces apoptosis in malignant cells and growth arrest in normal cells. A) Cell cycle distribution analysis by flow cytometry of MYC-regulated P493-6 cells and normal rat embryo fibroblasts (REFs). Left panel, P493-6 synchronized in G0 by 24 hours treatment of […] doxycycline. Doxycycline was removed and the cells were harvested 48 hours after the addition of fresh medium containing DMSO or 5 μM MYCMI-7. Right panel, flow cytometry analysis of normal REFs treated with DMSO or 5 μM MYCMI-7. B) Apoptosis assay using the Cell Death Detection ELISA^plus kit. Left panel, immortalized Rat1 fibroblasts with different MYC status after 24 hours of 5 μM MYCMI-7 treatment, middle panel and right panels, normal REFs and normal peripheral blood lymphocytes, respectively, after 24 and 48 hours of 5 μM MYCMI-7 treatment. C) Measurement of viability and apoptosis by Apo-Tox Glo Triplex assay in A375 melanoma cells after 3 days of treatment with MYCMI-7 with the indicated concentrations. […] E) NHDFs treated with 3 μM MYCMI-7 for 72 hrs. Viability was measured by trypan blue exclusion assay. F) Cell growth measured with Cyt62 assay of primary normal human epidermal melanocytes (NHEM) treated for 72 hours with MYCMI-7, G) Viability measured by trypan blue exclusion assay of NHEM after treatment for 72 hours with MYCMI-7.

T1 sequence (P15407 whole entry): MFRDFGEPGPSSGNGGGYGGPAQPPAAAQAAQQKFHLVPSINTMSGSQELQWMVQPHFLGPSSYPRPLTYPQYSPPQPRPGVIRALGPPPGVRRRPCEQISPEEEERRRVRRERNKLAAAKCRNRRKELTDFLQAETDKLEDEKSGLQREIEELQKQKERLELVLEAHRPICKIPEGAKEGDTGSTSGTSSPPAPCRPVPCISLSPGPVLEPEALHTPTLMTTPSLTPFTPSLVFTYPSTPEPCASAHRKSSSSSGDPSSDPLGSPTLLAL
T1 sequence (P05412 whole entry): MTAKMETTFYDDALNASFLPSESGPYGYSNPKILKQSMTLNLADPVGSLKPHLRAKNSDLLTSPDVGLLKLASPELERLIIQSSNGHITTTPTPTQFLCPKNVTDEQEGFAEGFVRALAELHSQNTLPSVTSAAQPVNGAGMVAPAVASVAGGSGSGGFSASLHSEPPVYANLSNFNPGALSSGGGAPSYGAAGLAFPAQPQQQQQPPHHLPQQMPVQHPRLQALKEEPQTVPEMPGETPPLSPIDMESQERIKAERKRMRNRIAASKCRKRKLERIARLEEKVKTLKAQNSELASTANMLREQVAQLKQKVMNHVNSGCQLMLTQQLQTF

SMILES: CCN(CC)CC[n+]1ccc2c(C)c3[nH]c4ccccc4c3c(C)c2c1 [MYCMI-7, 2-(5,11-Dimethyl-6H-25-pyrido[4,3-b]carbazol-2-yl)-N,N-diethylethanamine bromide]
- inhibition of FRA1:JUN interaction (isPLA) (FRA1:JUN interaction): not
- MYC expression (mRNA) (MYC mRNA; 5 μM): only minor effect
- MYC mRNA expression (MYC mRNA; MCF7 cells, various time points): not due to reduced MYC mRNA expression
- growth of three Burkitt's lymphoma cell lines [1]: strongly reduced growth
- GI50 (A375 melanoma cells): nanomolar range
- apoptosis (caspase activation) (A375 melanoma cells): induced apoptosis in a dose-dependent manner
